Results from ChEMBL document CHEMBL4819053, “Alkyne-Bridged α-Conotoxin Vc1.1 Potently Reverses Mechanical Allodynia in Neuropathic Pain Models” (J Med Chem, 2021).
Active and inactive are the calls of the source.

Legend:
[1] = target: T1, Neuronal acetylcholine receptor; alpha3/beta2 (Homo sapiens) (UniProt P17787+P32297); experiment: Antagonist activity at human alpha3beta2 nAChR expressed in Xenopus laevis oocytes assessed as inhibition of Ach-induced response at 30 uM incubated for 5 mins by two electrode voltage-clamp assay relative to control; type: cell-based; conditions: Oocyte
[2] = test system: Rattus norvegicus; experiment: Antiallodynic activity in Sprague-Dawley rat model of neuropathic mechanical allodynia assessed as increase in paw withdrawal threshold administered intramuscularly measured at 1 to 24 hrs post last dose by von Frey test; type: functional, organism-based; conditions: dose 0.03-0.1 mg/kg, time 1-24 hrs
[3] = target: T2, GABA-B receptor (Homo sapiens) (UniProt Q9UBS5+O75899); experiment: Agonist activity at human GABAB expressed in HEK293T cells co-transfected with human CaV2.2-beta3 channel assessed as inhibition of CaV2.2-mediated Ba2+ peak-current amplitude at 100 nM at -80 to 10 mV holding potential after 72 hrs by whole cell patch clamp assay relative to control; type: cell-based; conditions: filed as agonist
[4] = test system: Rattus norvegicus; experiment: Antiallodynic activity in Sprague-Dawley rat model of neuropathic mechanical allodynia assessed as increase in paw withdrawal threshold at 0.1 mg/kg, IM measured at 6 hr post last dose by von Frey test; type: functional
[5] = test system: Rattus norvegicus; experiment: Antiallodynic activity in Sprague-Dawley rat model of neuropathic mechanical allodynia assessed as increase in paw withdrawal threshold at 0.1 mg/kg, IM measured at 1 hr post last dose by von Frey test; type: functional
[6] = test system: Rattus norvegicus; experiment: Antiallodynic activity in Sprague-Dawley rat model of neuropathic mechanical allodynia assessed as increase in paw withdrawal threshold at 0.1 mg/kg, IM measured at 2 hr post last dose by von Frey test; type: functional
[7] = test system: Rattus norvegicus; experiment: Antiallodynic activity in Sprague-Dawley rat model of neuropathic mechanical allodynia assessed as increase in paw withdrawal threshold at 0.1 mg/kg, IM measured at 24 hrs post last dose by von Frey test; type: functional
[8] = test system: Rattus norvegicus; experiment: Antiallodynic activity in Sprague-Dawley rat model of neuropathic mechanical allodynia assessed as increase in paw withdrawal threshold at 0.1 mg/kg, IM measured at 4 hr post last dose by von Frey test; type: functional
[9] = target: GABA-B receptor (Homo sapiens, UniProt O75899+Q9UBS5); experiment: Agonist activity at human GABAB expressed in HEK293T cells co-transfected with human CaV2.2 channel assessed as inhibition of CaV2.2-mediated Ba2+ peak-current amplitude at -80 to 10 mV holding potential after 72 hrs by whole cell patch clamp assay; type: cell-based
GABA-B receptor, sequence (Q9UBS5 whole entry): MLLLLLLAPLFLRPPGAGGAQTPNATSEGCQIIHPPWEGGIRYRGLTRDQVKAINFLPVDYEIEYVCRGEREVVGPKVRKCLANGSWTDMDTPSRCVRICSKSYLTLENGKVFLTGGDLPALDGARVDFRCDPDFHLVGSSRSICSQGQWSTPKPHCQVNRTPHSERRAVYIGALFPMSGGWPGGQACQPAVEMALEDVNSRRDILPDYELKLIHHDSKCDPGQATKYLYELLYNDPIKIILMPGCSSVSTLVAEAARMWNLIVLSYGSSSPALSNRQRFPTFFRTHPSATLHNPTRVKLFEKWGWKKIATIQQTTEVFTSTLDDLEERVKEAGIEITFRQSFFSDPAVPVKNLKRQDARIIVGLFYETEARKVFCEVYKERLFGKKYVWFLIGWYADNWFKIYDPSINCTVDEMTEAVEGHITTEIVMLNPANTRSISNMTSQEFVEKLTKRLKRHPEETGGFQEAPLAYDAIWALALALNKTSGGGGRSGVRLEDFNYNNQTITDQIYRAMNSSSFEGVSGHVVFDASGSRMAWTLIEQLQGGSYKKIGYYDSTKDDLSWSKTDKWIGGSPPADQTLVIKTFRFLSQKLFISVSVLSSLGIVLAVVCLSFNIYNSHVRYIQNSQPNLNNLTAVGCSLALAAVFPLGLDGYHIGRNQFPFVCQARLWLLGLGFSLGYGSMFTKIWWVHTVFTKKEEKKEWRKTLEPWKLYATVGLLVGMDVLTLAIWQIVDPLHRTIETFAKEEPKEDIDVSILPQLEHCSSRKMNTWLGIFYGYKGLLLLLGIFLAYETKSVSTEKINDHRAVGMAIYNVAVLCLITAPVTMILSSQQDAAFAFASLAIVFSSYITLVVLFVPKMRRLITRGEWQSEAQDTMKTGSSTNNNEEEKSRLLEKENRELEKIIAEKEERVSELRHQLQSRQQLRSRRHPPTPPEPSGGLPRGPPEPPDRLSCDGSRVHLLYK
GABA-B receptor, sequence (O75899 whole entry): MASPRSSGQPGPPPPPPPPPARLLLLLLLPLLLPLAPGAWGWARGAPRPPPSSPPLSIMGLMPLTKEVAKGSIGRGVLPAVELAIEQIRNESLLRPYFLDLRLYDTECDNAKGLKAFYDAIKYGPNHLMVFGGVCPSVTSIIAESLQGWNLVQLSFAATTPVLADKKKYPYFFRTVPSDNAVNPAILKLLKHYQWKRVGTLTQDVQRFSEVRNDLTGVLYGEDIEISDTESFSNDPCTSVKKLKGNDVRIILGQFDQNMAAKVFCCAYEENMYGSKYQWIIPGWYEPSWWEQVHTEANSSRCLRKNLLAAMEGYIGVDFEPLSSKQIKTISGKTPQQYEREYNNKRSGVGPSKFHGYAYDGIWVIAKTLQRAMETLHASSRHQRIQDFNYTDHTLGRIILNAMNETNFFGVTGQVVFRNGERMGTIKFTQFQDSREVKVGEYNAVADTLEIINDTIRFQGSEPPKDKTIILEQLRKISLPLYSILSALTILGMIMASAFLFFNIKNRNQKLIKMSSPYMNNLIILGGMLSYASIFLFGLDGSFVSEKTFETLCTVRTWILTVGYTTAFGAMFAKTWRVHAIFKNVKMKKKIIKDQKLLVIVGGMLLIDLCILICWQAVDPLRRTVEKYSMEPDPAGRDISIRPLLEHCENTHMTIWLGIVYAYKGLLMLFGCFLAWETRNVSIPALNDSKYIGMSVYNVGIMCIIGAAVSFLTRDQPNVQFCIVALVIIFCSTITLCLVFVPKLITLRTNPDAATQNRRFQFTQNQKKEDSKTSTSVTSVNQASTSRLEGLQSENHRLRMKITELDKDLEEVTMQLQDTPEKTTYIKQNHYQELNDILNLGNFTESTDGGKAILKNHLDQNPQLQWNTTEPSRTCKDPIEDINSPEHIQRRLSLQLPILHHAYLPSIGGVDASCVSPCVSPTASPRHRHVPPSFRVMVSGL

[10] = target: T3, Neuronal acetylcholine receptor; alpha9/alpha10 (Homo sapiens) (UniProt Q9UGM1+Q9GZZ6); experiment: Antagonist activity at human alpha9/alpha10 nAChR expressed in Xenopus laevis oocytes assessed as inhibition of Ach-induced response at 30 uM incubated for 5 mins by two electrode voltage-clamp assay; type: cell-based; conditions: Oocyte
[11] = target: T2, GABA-B receptor (Homo sapiens); experiment: Agonist activity at human GABAB expressed in HEK293T cells co-transfected with human CaV2.2-alpha2delta1 channel assessed as inhibition of CaV2.2-mediated Ba2+ peak-current amplitude at 100 nM at -80 to 10 mV holding potential after 72 hrs by whole cell patch clamp assay relative to control; type: cell-based; conditions: filed as agonist
[12] = target: T2, GABA-B receptor (Homo sapiens); experiment: Agonist activity at human GABAB expressed in HEK293T cells co-transfected with human CaV2.2-alpha1B channel assessed as inhibition of CaV2.2-mediated Ba2+ peak-current amplitude at 100 nM at -80 to 10 mV holding potential after 72 hrs by whole cell patch clamp assay relative to control; type: cell-based; conditions: filed as agonist
[13] = target: Neuronal acetylcholine receptor subunit alpha-7 (Homo sapiens) (UniProt P36544); experiment: Antagonist activity at human alpha7 nAChR expressed in Xenopus laevis oocytes assessed as inhibition of Ach-induced response incubated for 5 mins by two electrode voltage-clamp assay; type: cell-based; conditions: Oocyte, dose 1-30 µM
Neuronal acetylcholine receptor subunit alpha-7 (Homo sapiens), sequence (P36544 whole entry): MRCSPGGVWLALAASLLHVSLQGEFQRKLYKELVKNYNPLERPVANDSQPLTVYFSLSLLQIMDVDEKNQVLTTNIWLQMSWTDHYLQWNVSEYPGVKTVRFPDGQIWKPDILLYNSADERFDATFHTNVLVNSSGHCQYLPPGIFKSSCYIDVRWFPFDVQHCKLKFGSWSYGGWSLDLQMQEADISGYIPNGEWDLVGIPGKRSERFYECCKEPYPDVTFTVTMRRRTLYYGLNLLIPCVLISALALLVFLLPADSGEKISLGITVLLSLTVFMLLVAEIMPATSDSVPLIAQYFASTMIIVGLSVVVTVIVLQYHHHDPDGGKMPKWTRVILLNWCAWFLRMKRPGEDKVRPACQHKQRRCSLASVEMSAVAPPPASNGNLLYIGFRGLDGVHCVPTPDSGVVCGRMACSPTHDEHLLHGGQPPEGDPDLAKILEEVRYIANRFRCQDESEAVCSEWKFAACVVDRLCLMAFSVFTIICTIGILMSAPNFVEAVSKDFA

[14] = target: T3, Neuronal acetylcholine receptor; alpha9/alpha10 (Homo sapiens); experiment: Antagonist activity at human alpha9alpha10 nAChR expressed in Xenopus laevis oocytes assessed as inhibition of Ach-induced response incubated for 5 mins by two electrode voltage-clamp assay; type: cell-based; conditions: Oocyte, filed as antagonist, dose 1-30 µM
[15] = target: Nicotinic acetylcholine receptor alpha6/alpha3/beta4 (Homo sapiens) (UniProt P30926+P32297+Q15825); experiment: Antagonist activity at human alpha6/alpha3beta4 nAChR expressed in Xenopus laevis oocytes assessed as inhibition of Ach-induced response at 1 to 30 uM incubated for 5 mins by two electrode voltage-clamp assay; type: cell-based; conditions: Oocyte, filed as antagonist, dose 1-30 µM
[16] = target: T1, Neuronal acetylcholine receptor; alpha3/beta2 (Homo sapiens); experiment: Antagonist activity at human alpha3beta2 nAChR expressed in Xenopus laevis oocytes assessed as inhibition of Ach-induced response incubated for 5 mins by two electrode voltage-clamp assay; type: cell-based; conditions: Oocyte, filed as antagonist, dose 1-30 µM
[17] = target: Neuronal acetylcholine receptor; alpha3/beta4 (Homo sapiens) (UniProt P30926+P32297); experiment: Antagonist activity at human alpha3beta4 nAChR expressed in Xenopus laevis oocytes assessed as inhibition of Ach-induced response at 1 to 30 uM incubated for 5 mins by two electrode voltage-clamp assay; type: cell-based; conditions: Oocyte, filed as antagonist, dose 1-30 µM

SMILES | inhibition [1] | Activity [2] | inhibition [3] [%] | Activity [4] [g] | Activity [5] [g] | Activity [6] [g] | Activity [7] [g] | Activity [8] [g] | IC50 [9] [nM] | inhibition [10] | inhibition [11] [%] | inhibition [12] [%] | inhibition [13] | inhibition ([1]; filed as antagonist) [%] | inhibition [14] | inhibition [15] | inhibition [16] | inhibition ([13]; filed as antagonist) | inhibition [17]
CC[C@H](C)[C@@H]1NC(=O)[C@H](CCC(=O)O)NC(=O)[C@@H]2CCCN2C(=O)[C@H](Cc2cnc[nH]2)NC(=O)[C@H](CC(=O)O)NC(=O)[C@H](Cc2ccc(O)cc2)NC(=O)[C@H](CC(N)=O)NC(=O)[C@@H]2CC#CC[C@@H](NC(=O)CN)C(=O)N[C@H](CSSC[C@@H](C(N)=O)NC1=O)C(=O)N[C@@H](CO)C(=O)N[C@@H](CC(=O)O)C(=O)N1CCC[C@H]1C(=O)N[C@@H](CCCNC(=N)N)C(=O)N2 | inactive | Dose-Dependent Effect | 26 | 4.88 | 5.38 | 5.5 | 3.88 | 5.5 | 13 | inactive | 26 | 26 | inactive | – | – | – | – | – | –
CC[C@H](C)[C@@H]1NC(=O)[C@H](CCC(=O)O)NC(=O)[C@@H]2CCCN2C(=O)[C@H](Cc2cnc[nH]2)NC(=O)[C@H](CC(=O)O)NC(=O)[C@H](Cc2ccc(O)cc2)NC(=O)[C@H](CC(N)=O)NC(=O)[C@@H]2CCCC[C@@H](NC(=O)CN)C(=O)N[C@H](CSSC[C@@H](C(N)=O)NC1=O)C(=O)N[C@@H](CO)C(=O)N[C@@H](CC(=O)O)C(=O)N1CCC[C@H]1C(=O)N[C@@H](CCCNC(=N)N)C(=O)N2 | – | – | 0.06 | – | – | – | – | – | – | – | 0.06 | 0.06 | – | > 90 | – | – | – | – | –
CC[C@H](C)[C@@H]1NC(=O)[C@H](CCC(=O)O)NC(=O)[C@@H]2CCCN2C(=O)[C@H](Cc2cnc[nH]2)NC(=O)[C@H](CC(=O)O)NC(=O)[C@H](Cc2ccc(O)cc2)NC(=O)[C@H](CC(N)=O)NC(=O)[C@@H]2CSSC[C@H](NC(=O)[C@@H](NC(=O)CN)CSSC[C@@H](C(N)=O)NC1=O)C(=O)N[C@@H](CO)C(=O)N[C@@H](CC(=O)O)C(=O)N1CCC[C@H]1C(=O)N[C@@H](CCCNC(=N)N)C(=O)N2 | – | – | 25 | – | – | – | – | – | 21 | – | 25 | 25 | – | – | Dose-Dependent Effect | Active | Dose-Dependent Effect | Dose-Dependent Effect | Active
